One block for each compound: values may come before it.
Experiments:
[1] = tested on: platelets on immobilized vWf; experiment: In vitro flow studies: platelet calcium flux and adhesion on immobilized vWf; format: cell-based; settings: vWf matrix, shear rate gradient up to 10,000 s^−1 over 1 s
Method: The use of an in vitro-flow based adhesion assay enables us to simultaneously analyze platelet adhesion dynamics and activation (by monitoring cytosolic calcium flux) on immobilized von Willebrand factor (vWf). Briefly, isolated platelets are perfused through vWf (100 μg/ml) coated microcapillary tubes and analysis of cytosolic calcium flux conducted in real-time by confocal microscopy.
Washed platelets (1.5×10^9) suspended in PWB were incubated with the calcium indicator dyes, Oregon Green 488 BAPTA-1, AM (1 μM) and Fura Red, AM (1.25 μM), for 30 min at 37° C. Platelets were washed twice with PWB prior to being resuspended in Tyrode's buffer containing 1 mM calcium.
For static adhesion assays, platelets were allowed to settle on the surface of vWf-coated coverslips for 30 min at 37° C. For flow assays, platelets were either perfused over a vWf-coated microcapillary tube at a constant shear rate of 600, 1800 or 10,000 s^−1 or allowed to settle on the surface of a vWf-coated microcapillary tube prior to being accelerated through a shear gradient of 10,000 s^−1 over a 1 s interval. Real time platelet calcium flux in individual platelets was monitored at 1 s intervals over the 30 min incubation period or at 0.586 s intervals for up to 175 s for static and flow-based assays, respectively.

p110γ-PI3K = p110γ-PI3K (Homo sapiens, UniProt P48736); experiment: In vitro enzyme assay, p110γ recombinant protein (Biological Example 1); format: biochemical; settings: Table I; read-out: inhibitory concentration, gamma
Text: Reactions were terminated and lipid products analysed as described above for the other PI 3-kinase isoforms assays.

p110δ-PI3K = target: T1, p110δ-PI3K (Homo sapiens, UniProt O00329); experiment: In vitro enzyme assay, p110δ immunoprecipitated from platelet lysate (Biological Example 1); format: biochemical; settings: Table I; read-out: inhibitory concentration, delta
T1 construct: from tissue; host or cells: washed platelets (lysate, immunoprecipitated with anti-p110δ antibody)
Method: (§1) For each immunoprecipitation, 1 mg of lysate was incubated with an anti-p110α (1 μg), anti-p110β (1 μg), anti-p110δ (1 μg) or anti-PI4 kinase antibody (2-5 μg) and 50 μl of a 50% slurry of protein A beads overnight at 4° C. […] For PI4 kinase assays, protein A beads-immune complexes were also washed twice with lysis buffer, prior to two washes with 1× PI4 kinase assay buffer (20 mM Hepes, pH 7.5, 10 mM MgCl2, 0.3% Triton X-100) and the addition of other assay constituents, as described above. All reactions were terminated by the addition of 100 μl 1 M HCl, 200 μl choloroform/methanol (1:1) and 500 μl 2 M KCl and lipids extracted by centrifugation at 15,000×g for 2 minutes. The production of PI3 or PI4 kinase lipid products, PtdIns(3)P and PtdIns(4)P, were confirmed through TLC analysis. The lipid spots were then removed from the TLC plate and the level of radioactivity quantified to accurately determine the level of PtdIns(3)P/PtdIns(4)P production.

p110β-PI3K = target: T2, p110β-PI3K (Homo sapiens, UniProt P42338); experiment: In vitro enzyme assay, p110β immunoprecipitated from platelet lysate (Biological Example 1); format: biochemical; settings: Table I; for IC50: read-out: inhibitory concentration, beta
T2 construct: The α and β isoforms of the PI3K were immunoprecipitated from a platelet lysate; from tissue; host or cells: washed platelets (lysate, immunoprecipitated with anti-p110β antibody)
Method: as §1, with “The production of PI3 or PI4 kinase lipid products, PtdIns(3)P and PtdIns(4)P, were confirmed through TLC analysis.” left out

p110α-PI3K = target: T3, p110α-PI3K (Homo sapiens, UniProt P42336); experiment: In vitro enzyme assay, p110α immunoprecipitated from platelet lysate (Biological Example 1); format: biochemical; settings: Table I; read-out: inhibitory concentration, alpha
T3 construct: The α and β isoforms of the PI3K were immunoprecipitated from a platelet lysate; from tissue; host or cells: washed platelets (lysate, immunoprecipitated with anti-p110α antibody)
Method: as §1

T2 sequence (P42338 whole entry, canonical isoform): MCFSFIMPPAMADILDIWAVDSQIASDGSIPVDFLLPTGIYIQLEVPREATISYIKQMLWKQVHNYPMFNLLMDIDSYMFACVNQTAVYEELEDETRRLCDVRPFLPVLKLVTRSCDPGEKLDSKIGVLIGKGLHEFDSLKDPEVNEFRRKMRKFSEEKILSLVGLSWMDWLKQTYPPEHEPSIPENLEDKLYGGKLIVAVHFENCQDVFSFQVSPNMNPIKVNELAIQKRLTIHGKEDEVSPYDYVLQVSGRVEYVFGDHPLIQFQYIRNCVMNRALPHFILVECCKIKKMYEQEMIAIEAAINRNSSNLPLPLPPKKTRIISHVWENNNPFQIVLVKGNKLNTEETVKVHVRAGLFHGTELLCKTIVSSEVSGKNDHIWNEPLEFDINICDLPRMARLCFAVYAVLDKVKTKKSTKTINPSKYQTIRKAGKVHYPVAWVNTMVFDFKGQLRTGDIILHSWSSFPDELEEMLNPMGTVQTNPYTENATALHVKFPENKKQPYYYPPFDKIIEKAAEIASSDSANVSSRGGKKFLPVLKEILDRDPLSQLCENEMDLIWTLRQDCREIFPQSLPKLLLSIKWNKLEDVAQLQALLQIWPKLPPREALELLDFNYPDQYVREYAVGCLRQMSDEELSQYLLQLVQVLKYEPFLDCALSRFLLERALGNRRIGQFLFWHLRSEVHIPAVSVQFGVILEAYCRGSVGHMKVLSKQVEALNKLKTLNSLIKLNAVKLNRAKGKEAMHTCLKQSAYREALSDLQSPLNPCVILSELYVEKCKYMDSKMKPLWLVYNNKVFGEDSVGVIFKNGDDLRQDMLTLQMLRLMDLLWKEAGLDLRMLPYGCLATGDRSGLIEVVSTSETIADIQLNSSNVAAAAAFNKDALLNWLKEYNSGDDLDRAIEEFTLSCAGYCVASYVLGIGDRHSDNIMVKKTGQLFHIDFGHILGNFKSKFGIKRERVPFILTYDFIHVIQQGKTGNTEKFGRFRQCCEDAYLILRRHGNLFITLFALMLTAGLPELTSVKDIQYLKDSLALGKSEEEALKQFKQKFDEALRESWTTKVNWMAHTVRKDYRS
T2 sequence (P27986 whole entry partner, canonical isoform): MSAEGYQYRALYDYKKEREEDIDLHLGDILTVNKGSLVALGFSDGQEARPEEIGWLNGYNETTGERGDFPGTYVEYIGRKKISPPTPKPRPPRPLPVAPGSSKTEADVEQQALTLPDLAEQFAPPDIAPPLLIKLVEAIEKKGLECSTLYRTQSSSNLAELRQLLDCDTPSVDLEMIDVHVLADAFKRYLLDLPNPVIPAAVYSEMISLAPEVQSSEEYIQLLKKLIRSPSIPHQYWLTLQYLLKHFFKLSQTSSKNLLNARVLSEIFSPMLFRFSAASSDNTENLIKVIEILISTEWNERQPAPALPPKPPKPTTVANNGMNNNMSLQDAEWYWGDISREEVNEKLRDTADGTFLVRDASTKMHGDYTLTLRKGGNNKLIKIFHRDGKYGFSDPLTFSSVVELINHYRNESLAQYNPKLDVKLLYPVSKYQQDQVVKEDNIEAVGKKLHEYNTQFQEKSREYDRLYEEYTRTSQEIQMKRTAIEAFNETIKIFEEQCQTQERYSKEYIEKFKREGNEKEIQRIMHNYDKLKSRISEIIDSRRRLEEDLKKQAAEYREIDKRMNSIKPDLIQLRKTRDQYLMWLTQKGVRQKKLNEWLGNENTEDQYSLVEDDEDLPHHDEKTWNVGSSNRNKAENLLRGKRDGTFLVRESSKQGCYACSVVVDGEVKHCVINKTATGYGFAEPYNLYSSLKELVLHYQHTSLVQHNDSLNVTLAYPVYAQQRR
Sequence of p110γ-PI3K (P48736 whole entry, canonical isoform): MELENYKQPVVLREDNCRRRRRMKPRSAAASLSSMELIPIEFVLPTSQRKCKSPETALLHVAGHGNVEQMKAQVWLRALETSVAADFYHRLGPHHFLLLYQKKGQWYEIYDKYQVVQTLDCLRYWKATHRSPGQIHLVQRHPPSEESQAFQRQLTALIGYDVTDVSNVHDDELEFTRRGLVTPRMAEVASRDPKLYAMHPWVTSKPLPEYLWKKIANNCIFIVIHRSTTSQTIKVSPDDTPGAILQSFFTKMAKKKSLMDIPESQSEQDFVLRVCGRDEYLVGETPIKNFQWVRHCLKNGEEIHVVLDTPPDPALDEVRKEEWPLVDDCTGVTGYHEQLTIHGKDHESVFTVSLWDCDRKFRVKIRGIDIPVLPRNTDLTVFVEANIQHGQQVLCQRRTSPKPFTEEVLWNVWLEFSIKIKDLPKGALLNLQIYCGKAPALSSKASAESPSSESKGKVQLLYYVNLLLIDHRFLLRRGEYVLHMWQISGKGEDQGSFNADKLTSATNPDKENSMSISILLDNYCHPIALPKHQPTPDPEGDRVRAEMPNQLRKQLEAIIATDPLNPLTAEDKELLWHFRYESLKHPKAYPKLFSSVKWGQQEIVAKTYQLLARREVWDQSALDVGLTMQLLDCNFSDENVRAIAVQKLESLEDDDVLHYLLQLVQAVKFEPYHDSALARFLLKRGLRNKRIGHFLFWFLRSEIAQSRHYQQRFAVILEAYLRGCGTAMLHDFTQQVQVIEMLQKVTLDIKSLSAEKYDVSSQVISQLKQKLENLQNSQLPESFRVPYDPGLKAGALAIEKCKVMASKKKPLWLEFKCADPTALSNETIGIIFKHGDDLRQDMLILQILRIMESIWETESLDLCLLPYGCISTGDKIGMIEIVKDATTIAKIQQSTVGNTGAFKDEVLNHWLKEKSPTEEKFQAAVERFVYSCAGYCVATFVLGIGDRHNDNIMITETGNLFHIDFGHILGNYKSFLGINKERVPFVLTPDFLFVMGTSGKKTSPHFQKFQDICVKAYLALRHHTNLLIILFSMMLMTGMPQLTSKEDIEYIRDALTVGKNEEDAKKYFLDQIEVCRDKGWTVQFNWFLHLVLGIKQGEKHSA
T1 sequence (O00329 whole entry): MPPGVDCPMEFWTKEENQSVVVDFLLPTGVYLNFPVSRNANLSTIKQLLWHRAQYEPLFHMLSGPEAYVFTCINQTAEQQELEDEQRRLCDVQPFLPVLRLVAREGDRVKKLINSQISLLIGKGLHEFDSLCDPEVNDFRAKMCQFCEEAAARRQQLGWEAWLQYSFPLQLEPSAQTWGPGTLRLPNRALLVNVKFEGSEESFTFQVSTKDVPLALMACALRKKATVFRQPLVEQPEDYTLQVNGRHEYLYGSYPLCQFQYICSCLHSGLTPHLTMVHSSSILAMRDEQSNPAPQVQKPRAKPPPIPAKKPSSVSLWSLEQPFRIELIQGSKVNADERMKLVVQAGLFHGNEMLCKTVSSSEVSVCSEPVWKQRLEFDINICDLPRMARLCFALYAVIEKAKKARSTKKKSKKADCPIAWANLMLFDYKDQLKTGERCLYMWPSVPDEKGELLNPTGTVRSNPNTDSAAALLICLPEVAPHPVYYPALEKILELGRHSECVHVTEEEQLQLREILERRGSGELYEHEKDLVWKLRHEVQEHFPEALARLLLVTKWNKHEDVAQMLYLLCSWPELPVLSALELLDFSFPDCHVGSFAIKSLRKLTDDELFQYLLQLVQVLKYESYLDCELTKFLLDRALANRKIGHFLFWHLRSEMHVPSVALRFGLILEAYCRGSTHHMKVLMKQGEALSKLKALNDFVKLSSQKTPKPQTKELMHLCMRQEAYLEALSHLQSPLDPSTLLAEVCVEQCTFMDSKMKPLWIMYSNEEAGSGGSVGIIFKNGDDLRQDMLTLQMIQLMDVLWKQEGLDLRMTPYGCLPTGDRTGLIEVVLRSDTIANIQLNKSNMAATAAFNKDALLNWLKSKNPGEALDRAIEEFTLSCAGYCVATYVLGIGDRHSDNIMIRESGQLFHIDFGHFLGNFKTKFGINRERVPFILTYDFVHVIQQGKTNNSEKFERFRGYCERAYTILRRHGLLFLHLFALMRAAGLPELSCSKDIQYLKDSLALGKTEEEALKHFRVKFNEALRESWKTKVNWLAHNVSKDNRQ
T1 sequence (P27986 whole entry partner): as the sequence (P27986 whole entry partner, canonical isoform) above
T3 sequence (P42336 whole entry, canonical isoform): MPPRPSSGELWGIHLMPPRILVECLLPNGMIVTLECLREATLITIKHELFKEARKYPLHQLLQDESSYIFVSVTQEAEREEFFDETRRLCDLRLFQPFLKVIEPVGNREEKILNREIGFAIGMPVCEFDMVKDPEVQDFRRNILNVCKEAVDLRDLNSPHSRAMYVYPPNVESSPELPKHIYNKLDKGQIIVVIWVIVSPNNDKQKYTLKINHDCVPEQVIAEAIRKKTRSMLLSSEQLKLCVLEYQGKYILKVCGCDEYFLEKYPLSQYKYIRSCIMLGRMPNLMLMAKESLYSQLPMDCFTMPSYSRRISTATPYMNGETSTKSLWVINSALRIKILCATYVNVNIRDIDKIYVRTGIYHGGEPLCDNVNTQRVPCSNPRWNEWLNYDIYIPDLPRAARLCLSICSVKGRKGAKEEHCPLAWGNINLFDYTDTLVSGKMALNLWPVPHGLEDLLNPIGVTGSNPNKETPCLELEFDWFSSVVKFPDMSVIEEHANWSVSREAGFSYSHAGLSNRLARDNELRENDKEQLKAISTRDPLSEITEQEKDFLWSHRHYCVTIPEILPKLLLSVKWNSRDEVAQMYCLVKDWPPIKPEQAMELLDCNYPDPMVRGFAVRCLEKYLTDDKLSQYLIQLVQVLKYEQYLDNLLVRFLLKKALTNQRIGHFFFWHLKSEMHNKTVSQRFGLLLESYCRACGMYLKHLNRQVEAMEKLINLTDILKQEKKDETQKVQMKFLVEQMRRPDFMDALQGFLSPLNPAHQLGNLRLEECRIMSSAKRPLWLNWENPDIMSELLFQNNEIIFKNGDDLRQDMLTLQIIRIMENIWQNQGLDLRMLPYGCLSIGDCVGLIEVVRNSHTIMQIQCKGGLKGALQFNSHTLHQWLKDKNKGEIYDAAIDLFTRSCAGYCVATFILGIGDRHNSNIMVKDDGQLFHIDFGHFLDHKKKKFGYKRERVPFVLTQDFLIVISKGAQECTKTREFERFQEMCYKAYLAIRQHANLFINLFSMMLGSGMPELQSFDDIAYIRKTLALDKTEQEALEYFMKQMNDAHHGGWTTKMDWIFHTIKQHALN
T3 sequence (P27986 whole entry partner, canonical isoform): as the sequence (P27986 whole entry partner, canonical isoform) above

SMILES: COC[C@H]1OC(=O)c2coc3c2[C@@]1(C)C1=C(C3=O)[C@@H]2CCC(=O)[C@@]2(C)C[C@H]1OC(C)=O [wortmannin, reference compound]
platelet responses to accelerated shear [1]: eliminates platelet responses to accelerated shear

SMILES: Cc1cc(C(C)Nc2cccc(C(F)(F)F)c2)c2nc(N3CCOCC3)cc(=O)n2c1 (racemic) [TGX-264, (±)-7-methyl-2-morpholin-4-yl-9-[1-(3-trifluoromethylphenylamino)ethyl]-pyrido[1,2-a]pyrimidin-4-one]
IC50 (p110γ-PI3K): > 5000 nM
IC50 (p110δ-PI3K): 10000 nM
Ratio δ/β (p110β-PI3K): 133.33
IC50 (p110β-PI3K): 75 nM
IC50 (p110α-PI3K): > 5000 nM

SMILES: Cc1cc(C(C)Nc2ccccn2)c2nc(N3CCOCC3)cc(=O)n2c1 (racemic) [TGX-295, (±)-7-methyl-2-morpholin-4-yl-9-[1-(2-pyridinylamino)ethyl]-pyrido[1,2-a]pyrimidin-4-one]
IC50 (p110γ-PI3K): > 5000 nM
IC50 (p110δ-PI3K): 2000 nM
Ratio δ/β (p110β-PI3K): 40.00
IC50 (p110β-PI3K): 50 nM
IC50 (p110α-PI3K): > 5000 nM

SMILES: Cc1cc(C(C)Nc2cc(F)cc(F)c2)c2nc(N3CCOCC3)cc(=O)n2c1 (racemic) [TGX-239, (±)-9-[1-(3,5-difluorophenylamino)ethyl]-7-methyl-2-morpholin-4-yl-pyrido[1,2-a]pyrimidin-4-one]
IC50 (p110γ-PI3K): > 5000 nM
IC50 (p110δ-PI3K): 80 nM
Ratio δ/β (p110β-PI3K): 11.43
IC50 (p110β-PI3K): 7 nM
IC50 (p110α-PI3K): > 5000 nM

The next lines start with the values.

IC50 (p110γ-PI3K): > 5000 nM
IC50 (p110δ-PI3K): 1000 nM
Ratio δ/β (p110β-PI3K): 20.00
IC50 (p110β-PI3K): 50 nM
IC50 (p110α-PI3K): > 5000 nM
SMILES: Cc1cc(C(C)Nc2ccc(Cl)c(Cl)c2)c2nc(N3CCOCC3)cc(=O)n2c1 (racemic) [TGX-244, (±)-9-[1-(3,4-dichlorophenylamino)ethyl]-7-methyl-2-morpholin-4-yl-pyrido[1,2-a]pyrimidin-4-one]

IC50 (p110γ-PI3K): > 5000 nM
IC50 (p110δ-PI3K): 1000 nM
Ratio δ/β (p110β-PI3K): 20.00
IC50 (p110β-PI3K): 50 nM
IC50 (p110α-PI3K): > 5000 nM
SMILES: Cc1cccc(NC(C)c2cc(C)cn3c(=O)cc(N4CCOCC4)nc23)c1 (racemic) [TGX-262, (±)-7-methyl-9-[1-(3-methylphenylamino)ethyl]-2-morpholin-4-yl-pyrido[1,2-a]pyrimidin-4-one]

IC50 (p110γ-PI3K): > 5000 nM
IC50 (p110δ-PI3K): 2000 nM
Ratio δ/β (p110β-PI3K): 40.00
IC50 (p110β-PI3K): 50 nM
IC50 (p110α-PI3K): > 5000 nM
SMILES: Cc1cc(C(C)Nc2ccc(Cl)cc2)c2nc(N3CCOCC3)cc(=O)n2c1 (racemic) [TGX-243, (±)-9-[1-(4-chlorophenylamino)ethyl]-7-methyl-2-morpholin-4-yl-pyrido[1,2-a]pyrimidin-4-one]

IC50 (p110γ-PI3K): > 5000 nM
IC50 (p110δ-PI3K): 100 nM
Ratio δ/β (p110β-PI3K): 10.00
IC50 (p110β-PI3K): 10 nM
IC50 (p110α-PI3K): > 5000 nM
SMILES: Cc1cc(C(C)Nc2cccc(Cl)c2)c2nc(N3CCOCC3)cc(=O)n2c1 (racemic) [TGX-248, (±)-9-[1-(3-chlorophenylamino)ethyl]-7-methyl-2-morpholin-4-yl-pyrido[1,2-a]pyrimidin-4-one]

IC50 (p110γ-PI3K): > 5000 nM
IC50 (p110δ-PI3K): 500 nM
Ratio δ/β (p110β-PI3K): 25.00
IC50 (p110β-PI3K): 20 nM
IC50 (p110α-PI3K): > 5000 nM
SMILES: Cc1cc(CN(C)c2ccccc2)c2nc(N3CCOCC3)cc(=O)n2c1 (racemic) [TGX-195, (±)-7-methyl-9-{[methyl(phenyl)amino]methyl}-2-morpholin-4-yl-pyrido[1,2-a]pyrimidin-4-one]
